Consider 15 compounds from patent US20260028354A1, “TETRAHYDRONAPHTHALENE DERIVATIVES AS ESTROGEN RECEPTOR DEGRADERS” (REGENT OF THE UNIVERSITY OF MICHIGAN, priority 2022, published 2026).

Like-named read-outs stand apart in the source and are kept apart here.

Holding throughout (type): cell-based
In one experiment the target is ER (Homo sapiens (Human), UniProt P03372). In words: In-cell western blot analysis of ER for "B" compounds. The following applies: 16 hours, read-out: ICW DC50. As for the experimental part: R^T 2h, gentle shaking. Negative control: cells plus secondary antibodies (no primary antibodies); e, wash x 4 with PBS+0.05-0.1% Tween 20, gentel shaking; f, anti-rabbit-680 and anti-mouse-800 (both 1:1000 in LiCor block+0.05% Tween20, R^T 1h, gentle shaking, no light. LI-COR: 0.2% to reduce background; g, wash×4 with PBS+0.05% Tween 20, gental shaking; h, add 100 μL or 25 μL of PBS to each well and read on CLX plate reader. The relative ER percentage in treated cells were obtained by comparing the values of treated wells to those in untreated and DMSO-treated wells as 100%.
Chain of ER (P03372 whole entry): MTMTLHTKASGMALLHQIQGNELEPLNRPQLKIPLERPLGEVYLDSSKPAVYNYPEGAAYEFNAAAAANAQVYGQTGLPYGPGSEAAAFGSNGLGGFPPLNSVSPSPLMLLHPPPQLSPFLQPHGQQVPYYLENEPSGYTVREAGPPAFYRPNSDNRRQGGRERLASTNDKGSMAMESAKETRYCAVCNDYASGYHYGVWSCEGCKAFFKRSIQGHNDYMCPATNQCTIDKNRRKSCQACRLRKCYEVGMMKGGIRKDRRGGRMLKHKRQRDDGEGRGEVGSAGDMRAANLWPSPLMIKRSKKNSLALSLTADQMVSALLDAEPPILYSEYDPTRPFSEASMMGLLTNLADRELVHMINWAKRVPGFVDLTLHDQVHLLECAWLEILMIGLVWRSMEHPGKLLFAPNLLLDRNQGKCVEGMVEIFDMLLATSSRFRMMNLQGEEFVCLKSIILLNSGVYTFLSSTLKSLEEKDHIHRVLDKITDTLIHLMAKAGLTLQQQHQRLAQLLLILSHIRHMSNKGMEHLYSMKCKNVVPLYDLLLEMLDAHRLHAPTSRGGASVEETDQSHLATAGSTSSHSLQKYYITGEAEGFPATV

Experiment [1] is described as follows: Western blot analysis for "B" compounds. The settings on record: read-out: Traditional Western Degradation Potency (DC50). A digest of the protocol:
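Compound-treated cells lysed in RIPA buffer with protease inhibitors; equal protein (BCA) run on 10% SDS-PAGE, transferred to PVDF and probed with target antibodies. Band intensities quantified by densitometry and normalized to GAPDH.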
On the technique in general: In western blotting, separated proteins are transferred to a membrane and probed.

Experiment [2] is described as follows: Cell growth assay (WST-8) for "B" compounds. The settings on record: T47D cell line, read-out: Cell growth Inhibition in T47D cell line IC50. On the procedure: Cell Growth Assay. The cells were seeded at 1500/well in 96 well plates overnight. One day after the seeding, they were treated with indicated doses of compounds respectively, 4 days after the compound treatment, 10% WST-8 reagent was added to the culture medium and incubate in a CO2 incubator at 37° C. for 2.5 hours. Before reading, the plate was mixed gently on an orbital shaker for one minute to ensure homogeneous distribution of color. The absorbance was measured of each sample using a microplate reader at a wavelength of 450 nm. The relative absorbance was calculated against the vehicle control from three individually repeats.
(In general: Formazan colour is commonly taken as a measure of viable cells.)

Consider `O=C1CCC(N2Cc3cc4c(cc3C2=O)OC[C@@H]2CN(CC3CC5CN(c6ccc([C@@H]7c8ccc(O)cc8CC[C@@H]7c7ccccc7)cc6)CC5C3)CCN42)C(=O)N1` (mixture of isomers) [Compound B321, 3-((4aS)-3-(((3aRS,6aSR)-2-(4-((1R,2S)-6-hydroxy-2-phenyl-1,2,3,4-tetrahydronaphthalen-1-yl)phenyl)octahydrocyclopenta[c]pyrrol-5-yl)methyl)-8-oxo-1,2,3,4,4a,5,8,10-octahydro-9H-pyrazino[1′,2′:4,5][1,4]oxazino[2,3-f]isoindol-9-yl)piperidine-2,6-dione], for which the DC50 on ER is more than 100 nM.
In general, IC50 refers to the concentration at which inhibition is half-maximal. On to `O=C1CCC(N2C(=O)c3cc4c(cc3C2=O)CN(CC2CCN(C(=O)C3CCN(c5ccc([C@@H]6c7ccc(O)cc7CC[C@@H]6c6ccccc6)cc5)CC3)CC2)C4)C(=O)N1` (stereo partly drawn) [Compound B56, 2-(2,6-dioxopiperidin-3-yl)-6-((1-(1-(4-((1R,2S)-6-hydroxy-2-phenyl-1,2,3,4-tetrahydronaphthalen-1-yl)phenyl)piperidine-4-carbonyl)piperidin-4-yl)methyl)-6,7-dihydropyrrolo[3,4-f]isoindole-1,3(2H,5H)-dione], for which the DC50 in experiment [1] was 10 to 100 nM. Further, in experiment [2] (T47D), the IC50 lay in the range of 1 to 10 nM.
Take `O=C1CCC(N2C(=O)c3cc4c(cc3C2=O)CN(C(=O)C2CCN(CC3CCN(c5ccc([C@@H]6c7ccc(O)cc7CC[C@@H]6c6ccccc6)cc5)CC3)CC2)C4)C(=O)N1` (stereo partly drawn) [Compound B57, 2-(2,6-dioxopiperidin-3-yl)-6-(1-((1-(4-((1R,2S)-6-hydroxy-2-phenyl-1,2,3,4-tetrahydronaphthalen-1-yl)phenyl)piperidin-4-yl)methyl)piperidine-4-carbonyl)-6,7-dihydropyrrolo[3,4-f]isoindole-1,3(2H,5H)-dione]: the DC50 in experiment [1] was more than 100 nM. The IC50 in experiment [2] (T47D) fell in the range of 1 to 10 nM.
The matching figures for `O=C1CCC(N2C(=O)c3cc4c(cc3C2=O)CN(C2CCN(CC3CCN(c5ccc([C@@H]6c7ccc(O)cc7CC[C@@H]6c6ccccc6)cc5)CC3)CC2)C4)C(=O)N1` (stereo partly drawn) [Compound B64, 2-(2,6-dioxopiperidin-3-yl)-6-(1-((1-(4-((1R,2S)-6-hydroxy-2-phenyl-1,2,3,4-tctrahydronaphthalcn-1-yl)phenyl)pipcridin-4-yl)methyl)piperidin-4-yl)-6,7-dihydropyrrolo[3,4-f]isoindole-1,3(2H,5H)-dione]: less than 10 nM and 1 to 10 nM.
With `O=C1CCC(N2C(=O)c3cc4c(cc3C2=O)CN(CC(=O)N2CCC3(CC2)CCN(c2ccc([C@@H]5c6ccc(O)cc6CC[C@@H]5c5ccccc5)cc2)CC3)C4)C(=O)N1` (stereo partly drawn) [Compound B133, 2-(2,6-dioxopiperidin-3-yl)-6-(2-(9-(4-((1R,2S)-6-hydroxy-2-phenyl-1,2,3,4-tetrahydronaphthalen-1-yl)phenyl)-3,9-diazaspiro[5.5]undecan-3-yl)-2-oxoethyl)-6,7-dihydropyrrolo[3,4-f]isoindole-1,3(2H,5H)-dione], the DC50 in experiment [1] was 10 to 100 nM. The 50% inhibitory concentration (IC50) in experiment [2] lay in the range of 1 to 10 nM.
In the case of `O=C1CCC(N2Cc3cc4c(cc3C2=O)OC[C@@H]2CN(CC3CCN(c5ccc([C@@H]6c7ccc(O)cc7CC[C@@H]6c6ccccc6)cc5)CC3)CCN42)C(=O)N1` (stereo partly drawn) [Compound B135, 3-((S)-3-((1-(4-((1R,2S)-6-hydroxy-2-phenyl-1,2,3,4-tetrahydronaphthalen-1-yl)phenyl)piperidin-4-yl)methyl)-8-oxo-1,2,3,4,4a,5,8,10-octahydro-9H-pyrazino[1′,2′:4,5][1,4]oxazino[2,3-f]isoindol-9-yl)piperidine-2,6-dione], the DC50 in experiment [1] lay within 10 to 100 nM. Also, the IC50 in experiment [2] (T47D) was 1 to 10 nM.
The matching figures for `COc1c2c(cc3c1C(=O)N(C1CCC(=O)NC1=O)C3=O)CN(CC(=O)N1CCC3(CC1)CCN(c1ccc([C@@H]4c5ccc(O)cc5CC[C@@H]4c4ccccc4)cc1)CC3)C2` (stereo partly drawn) [Compound B136, 2-(2,6-dioxopiperidin-3-yl)-6-(2-(9-(4-((1R,2S)-6-hydroxy-2-phenyl-1,2,3,4-tetrahydronaphthalen-1-yl)phenyl)-3,9-diazaspiro[5.5]undecan-3-yl)-2-oxoethyl)-4-methoxy-6,7-dihydropyrrolo[3,4-f]isoindole-1,3(2H,5H)-dione]: 10 to 100 nM and 1 to 10 nM.
Turning to `O=C1CCC(N2C(=O)c3cc4c(cc3C2=O)CN(CC(=O)N2CCC3(CC2)CCN(c2ccc([C@H]5c6ccc7[nH]ncc7c6CC[C@H]5c5ccccc5)cc2)CC3)C4)C(=O)N1` (stereo partly drawn) [Compound B138, 2-(2,6-dioxopiperidin-3-yl)-6-(2-oxo-2-(9-(4-((6S,7R)-7-phenyl-6,7,8,9-tetrahydro-3H-benzo[e]indazol-6-yl)phenyl)-3,9-diazaspiro[5.5]undecan-3-yl)ethyl)-6,7-dihydropyrrolo[3,4-f]isoindole-1,3(2H,5H)-dione], the DC50 in experiment [1] was more than 100 nM. Also, the IC50 in experiment [2] (T47D) fell in the range of 1 to 10 nM.
For `O=C1CCC(N2Cc3cc4c(cc3C2=O)OC[C@@H]2CN(CC(=O)N3C[C@@H]5CN(c6ccc([C@@H]7c8ccc(O)cc8CC[C@@H]7c7ccccc7)cc6)C[C@@H]5C3)CCN42)C(=O)N1` (stereo partly drawn) [Compound B156, 3-((S)-3-(2-((3aR,6aS)-5-(4-((1R,2S)-6-hydroxy-2-phenyl-1,2,3,4-tetrahydronaphthalen-1-yl)phenyl)hexahydropyrrolo[3,4-c]pyrrol-2(1H)-yl)-2-oxoethyl)-8-oxo-1,2,3,4,4a,5,8,10-octahydro-9H-pyrazino[1′,2′:4,5][1,4]oxazino[2,3-f]isoindol-9-yl)piperidine-2,6-dione], at ER, the DC50 was more than 100 nM.
As for `O=C1CCC(N2Cc3cc4c(cc3C2=O)OC[C@@H]2CN(C(=O)CN3CCC5(CC3)CCN(c3ccc([C@@H]6c7ccc(O)cc7CC[C@@H]6c6ccccc6)cn3)CC5)CCN42)C(=O)N1` (stereo partly drawn) [Compound B158, 3-((S)-3-(2-(9-(5-((1S,2S)-6-hydroxy-2-phenyl-1,2,3,4-tetrahydronaphthalen-1-yl)pyridin-2-yl)-3,9-diazaspiro[5.5]undecan-3-yl)acetyl)-8-oxo-1,2,3,4,4a,5,8,10-octahydro-9H-pyrazino[1′,2′:4,5][1,4]oxazino[2,3-f]isoindol-9-yl)piperidine-2,6-dione], the DC50 at ER lay in the range of 10 to 100 nM.
As to `O=C1CCC(N2Cc3cc4c(cc3C2=O)OC[C@@H]2CN(CC(=O)N3CCC5(CC3)CN(c3ccc([C@@H]6c7ccc(O)cc7CC[C@@H]6c6ccccc6)cc3)C5)CCN42)C(=O)N1` (stereo partly drawn) [Compound B160, 3-((S)-3-(2-(2-(4-((1R,2S)-6-hydroxy-2-phenyl-1,2,3,4-tetrahydronaphthalen-1-yl)phenyl)-2,7-diazaspiro[3.5]nonan-7-yl)-2-oxoethyl)-8-oxo-1,2,3,4,4a,5,8,10-octahydro-9H-pyrazino[1′,2′:4,5][1,4]oxazino[2,3-f]isoindol-9-yl)piperidine-2,6-dione], the DC50 on ER was less than 10 nM.
Same read-out and setting: the result for `O=C1CCC(N2Cc3cc4c(cc3C2=O)OC[C@@H]2CN(C(=O)CN3CCC5(CC3)CN(c3ccc([C@@H]6c7ccc(O)cc7CC[C@@H]6c6ccccc6)cc3)C5)CCN42)C(=O)N1` (stereo partly drawn) [Compound B161, 3-((S)-3-(2-(2-(4-((1R,2S)-6-hydroxy-2-phenyl-1,2,3,4-tetrahydronaphthalen-1-yl)phenyl)-2,7-diazaspiro[3.5]nonan-7-yl)acetyl)-8-oxo-1,2,3,4,4a,5,8,10-octahydro-9H-pyrazino[1′,2′:4,5][1,4]oxazino[2,3-f]isoindol-9-yl)piperidine-2,6-dione] reads less than 10 nM.
Still for that read-out and setting: the result for `CN1C[C@@H]2CN(C(=O)CN3CC4(CCN(c5ccc([C@@H]6c7ccc(O)cc7CC[C@@H]6c6ccccc6)cc5)CC4)C3)CCN2c2cc3c(cc21)C(=O)N(C1CCC(=O)NC1=O)C3` (stereo partly drawn) [Compound B162, 3-((R)-3-(2-(7-(4-((1R,2S)-6-hydroxy-2-phenyl-1,2,3,4-tetrahydronaphthalen-1-yl)phenyl)-2,7-diazaspiro[3.5]nonan-2-yl)acetyl)-6-methyl-8-oxo-2,3,4,4a,5,6,8,10-octahydropyrazino[1,2-a]pyrrolo[3,4-g]quinoxalin-9(1H)-yl)piperidine-2,6-dione] reads 10 to 100 nM; that for `O=C1CCC(N2Cc3c(ccc4c3OCC43CCN(C(=O)CN4CCC5(C4)CN(c4ccc([C@@H]6c7ccc(O)cc7CC[C@@H]6c6ccccc6)cc4)C5)CC3)C2=O)C(=O)N1` (stereo partly drawn) [Compound B169, 3-(1′-(2-(2-(4-((1R,2S)-6-hydroxy-2-phenyl-1,2,3,4-tetrahydronaphthalen-1-yl)phenyl)-2,6-diazaspiro[3.4]octan-6-yl)acetyl)-6-oxo-6,8-dihydro-2H,7H-spiro[furo[2,3-e]isoindole-3,4′-piperidin]-7-yl)piperidine-2,6-dione], less than 10 nM.
Still for that read-out and setting: the result for `O=C1CCC(N2Cc3c(ccc4c3OC[C@H]3CN(CC5CC6CN(c7ccc([C@@H]8c9ccc(O)cc9CC[C@@H]8c8ccccc8)cc7)CC6C5)CCN43)C2=O)C(=O)N1` (stereo partly drawn) [Compound B320, 3-((5aR)-7-(((3aRS,6aSR)-2-(4-((1R,2S)-6-hydroxy-2-phenyl-1,2,3,4-tetrahydronaphthalen-1-yl)phenyl)octahydrocyclopenta[c]pyrrol-5-yl)methyl)-1-oxo-1,3,5,5a,6,7,8,9-octahydro-2H-pyrazino[1′,2′:4,5][1,4]oxazino[2,3-c]isoindol-2-yl)piperidine-2,6-dione] reads more than 100 nM.
